Patent US20130197009A1, “ANTAGONIST FOR MUTANT ANDROGEN RECEPTOR” (ASTELLAS PHARMA INC., priority 2010, published 2013)
Numbering of substitutions follows the chain as printed.

Experiments:
wild type AR (Wild) = molecular target: T1, wild type AR (Wild) (Homo sapiens, UniProt P10275); assay: Inhibitory action against transcriptional activation of AR (luciferase reporter, CHO-K1 cells, DHT 0.3 nM)
T1 sequence (P10275 1-920): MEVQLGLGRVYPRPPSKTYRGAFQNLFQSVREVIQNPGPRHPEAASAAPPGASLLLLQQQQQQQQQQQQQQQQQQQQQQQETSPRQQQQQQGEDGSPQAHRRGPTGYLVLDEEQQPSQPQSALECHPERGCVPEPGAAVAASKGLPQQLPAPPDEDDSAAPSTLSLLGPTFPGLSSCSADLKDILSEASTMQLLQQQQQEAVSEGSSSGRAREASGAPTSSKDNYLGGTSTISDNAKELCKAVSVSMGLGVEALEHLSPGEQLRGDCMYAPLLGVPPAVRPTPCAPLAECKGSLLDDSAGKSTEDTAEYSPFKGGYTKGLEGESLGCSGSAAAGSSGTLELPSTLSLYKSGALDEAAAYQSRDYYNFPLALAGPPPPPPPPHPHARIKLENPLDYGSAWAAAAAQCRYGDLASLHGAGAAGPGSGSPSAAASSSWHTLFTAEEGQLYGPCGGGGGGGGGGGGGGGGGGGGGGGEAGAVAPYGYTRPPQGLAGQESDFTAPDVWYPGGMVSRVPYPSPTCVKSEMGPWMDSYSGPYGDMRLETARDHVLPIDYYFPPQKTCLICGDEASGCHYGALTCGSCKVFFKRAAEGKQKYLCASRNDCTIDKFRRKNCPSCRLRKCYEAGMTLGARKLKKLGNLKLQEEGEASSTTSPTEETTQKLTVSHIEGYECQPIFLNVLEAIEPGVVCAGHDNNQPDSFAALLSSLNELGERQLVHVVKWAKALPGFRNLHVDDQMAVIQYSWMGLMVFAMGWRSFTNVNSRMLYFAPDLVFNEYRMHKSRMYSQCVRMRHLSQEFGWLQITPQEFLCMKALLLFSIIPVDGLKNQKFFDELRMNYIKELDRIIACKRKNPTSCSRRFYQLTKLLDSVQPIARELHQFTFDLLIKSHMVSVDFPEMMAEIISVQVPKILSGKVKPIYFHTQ

human T877A mutant AR = molecular target: T2, human T877A mutant AR (Homo sapiens, UniProt P10275, T878A); assay: Inhibitory action against transcriptional activation of mutant AR (luciferase reporter, CHO-K1 cells, DHT 0.3 nM); type: cell-based; details: CHO-K1 cells stably expressing T877A mutant AR, with DHT 0.3 nM, >1000 nM means no inhibitory action observed, read-out: IC50, inhibition of transcriptional activation, T877A
T2 construct: expressed in transfected cells; host or cells: CHO-K1
T2 sequence (P10275 1-920 T878A): T1 sequence (P10275 1-920) with T878A
Method: Subsequently, the cells were incubated overnight again at 37° C. and then treated with a luciferase assay system.
An IC50 value was calculated by Sigmoid-Emax model nonlinear regression analysis.
The inhibitory action of the respective test compounds against the receptor was calculated as an IC50 value, and the values are described in the following table. In addition, “-” means that the test was not performed.

| SMILES | IC50 (wild type AR (Wild)) | IC50 (human T877A mutant AR) |
| --- | --- | --- |
| COc1cc(N2C[C@@H](C)N(C(=O)Nc3cc(C)nc(C)n3)C[C@@H]2C)ccc1C#N [Ex 7, (2R,5S)-4-(4-cyano-3-methoxyphenyl)-N-(2,6-dimethylpyrimidin-4-yl)-2,5-dimethylpiperazine-1-carboxamide] | 76 nM |  |
| C[C@@H]1CN(c2ccc(C#N)c(Cl)c2)[C@@H](C)CN1C(=O)Nc1cnc(N2CCCCC2)nc1 [Ex 8, (2R,5S)-4-(3-chloro-4-cyanophenyl)-2,5-dimethyl-N-[2-(piperidin-1-yl)pyrimidin-5-yl]piperazine-1-carboxamide] | 17 nM |  |
| COc1ncc(NC(=O)N2C[C@H](C)N(c3ccc(C#N)c(Br)c3)C[C@H]2C)cn1 [Ex 11, (2R,5S)-4-(3-bromo-4-cyanophenyl)-N-(2-methoxypyrimidin-5-yl)-2,5-dimethylpiperazine-1-carboxamide] | 26 nM | 23 nM |
| Cc1cc(NC(=O)N2C[C@H](C)N(c3ccc(C#N)c(Cl)c3)C[C@H]2C)cc(Cl)n1 [Ex 16, (2R,5S)-4-(3-chloro-4-cyanophenyl)-N-(2-chloro-6-methylpyridin-4-yl)-2,5-dimethylpiperazine-1-carboxamide] | 45 nM | 24 nM |
| COc1cc(NC(=O)N2C[C@H](C)N(c3ccc(C#N)c(Cl)c3)C[C@H]2C)cc(C)n1 [Ex 18, (2R,5S)-4-(3-chloro-4-cyanophenyl)-N-(2-methoxy-6-methylpyridin-4-yl)-2,5-dimethylpiperazine-1-carboxamide] | 10 nM | 15 nM |
| COc1cc(NC(=O)N2C[C@H](C)N(c3ccc(C#N)c(Br)c3)C[C@H]2C)cc(C)n1 [Ex 19, (2R,5S)-4-(3-bromo-4-cyanophenyl)-N-(2-methoxy-6-methylpyridin-4-yl)-2,5-dimethylpiperazine-1-carboxamide] | 11 nM | 19 nM |
| C[C@@H]1CN(c2ccc(C#N)c(Cl)c2)[C@@H](C)CN1C(=O)Nc1cnc2ccccc2n1 [Ref 1-3, (2R,5S)-4-(3-chloro-4-cyanophenyl)-2,5-dimethyl-N-(quinoxalin-2-yl)piperazine-1-carboxamide, reference compound] | 51 nM | 680 nM |

The next lines start with the values.

| IC50 (wild type AR (Wild)) | IC50 (human T877A mutant AR) | SMILES |
| --- | --- | --- |
| 140 nM | 350 nM | CC(C)Oc1cc(N2C[C@@H](C)N(C(=O)Nc3cnc(C4CC4)nc3)C[C@@H]2C)ccc1C#N [Ref 1-1, reference compound] |
| 58 nM | 89 nM | COc1cc(N2C[C@@H](C)N(C(=O)Nc3nc(C)cc(O)n3)C[C@@H]2C)ccc1C#N [Ref 1-2, reference compound] |
